Source: publication PMC6430017, “Structural and chemical insights into the covalent-allosteric inhibition of the protein kinase Akt” (Chemical Science, 2019)

Experiments:
Test in all cases: SelectScreen Z'LYTE kinase profiling
Type in all cases: biochemical
Conditions in all cases: ATP at apparent KM
[1] = biological target: T1, PRKG2 (PKG2) (Homo sapiens, UniProt Q13237)
T1 sequence (Q13237 1-762): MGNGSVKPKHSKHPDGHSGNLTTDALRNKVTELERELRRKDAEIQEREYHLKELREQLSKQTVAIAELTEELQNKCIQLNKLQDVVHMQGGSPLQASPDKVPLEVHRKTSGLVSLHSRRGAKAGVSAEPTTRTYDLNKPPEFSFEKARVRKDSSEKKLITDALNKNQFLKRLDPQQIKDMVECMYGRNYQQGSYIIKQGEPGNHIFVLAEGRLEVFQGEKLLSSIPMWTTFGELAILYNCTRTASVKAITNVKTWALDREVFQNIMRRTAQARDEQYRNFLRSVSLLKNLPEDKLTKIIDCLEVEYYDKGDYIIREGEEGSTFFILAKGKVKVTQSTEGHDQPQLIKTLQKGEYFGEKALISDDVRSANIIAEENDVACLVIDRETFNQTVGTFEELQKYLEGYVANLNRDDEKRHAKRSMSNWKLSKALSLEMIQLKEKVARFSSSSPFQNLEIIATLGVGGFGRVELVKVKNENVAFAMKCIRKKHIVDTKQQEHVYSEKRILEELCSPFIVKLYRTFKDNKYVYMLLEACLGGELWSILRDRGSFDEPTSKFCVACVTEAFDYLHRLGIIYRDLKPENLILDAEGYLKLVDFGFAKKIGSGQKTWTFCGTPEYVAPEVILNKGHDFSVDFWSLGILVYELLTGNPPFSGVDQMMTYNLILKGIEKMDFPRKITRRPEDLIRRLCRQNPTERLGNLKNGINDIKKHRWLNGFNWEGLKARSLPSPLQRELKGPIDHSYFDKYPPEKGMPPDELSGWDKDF
Method: (§1) protein kinases at a compound concentration of 1 µM. Measurements were performed in duplicates
(§2) and at the particular apparent ATP KM of each individual kinase employing the activity based Z’LYTE®
(§3) kinase assay of the SelectScreen® Kinase Profiling Services (ThermoFisher Scientific).
(§4) kinases at a compound concentration of 1 µM. Measurements were performed in duplicates and at
(§5) the particular apparent ATP KM of each individual kinase employing the activity based Z’LYTE® kinase
(§6) assay of the SelectScreen® Kinase Profiling Services (ThermoFisher Scientific).

[2] = biological target: T2, SGKL (SGK3) (Homo sapiens, UniProt Q96BR1)
T2 sequence (Q96BR1 1-496): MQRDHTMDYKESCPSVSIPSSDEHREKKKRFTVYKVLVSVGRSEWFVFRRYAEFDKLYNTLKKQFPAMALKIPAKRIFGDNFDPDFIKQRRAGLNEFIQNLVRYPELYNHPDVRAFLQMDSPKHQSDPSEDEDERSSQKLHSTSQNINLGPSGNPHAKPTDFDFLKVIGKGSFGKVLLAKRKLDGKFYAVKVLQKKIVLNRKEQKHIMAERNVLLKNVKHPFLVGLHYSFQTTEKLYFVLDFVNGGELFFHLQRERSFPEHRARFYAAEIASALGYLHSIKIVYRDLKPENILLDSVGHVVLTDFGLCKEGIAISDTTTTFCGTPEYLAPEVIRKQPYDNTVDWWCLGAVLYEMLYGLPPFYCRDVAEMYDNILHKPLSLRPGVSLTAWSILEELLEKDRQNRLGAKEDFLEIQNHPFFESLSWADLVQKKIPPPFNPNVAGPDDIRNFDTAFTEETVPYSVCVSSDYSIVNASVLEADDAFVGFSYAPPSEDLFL
Method: as §1, §2, §3, §4, §5, §6

[3] = biological target: T3, SGK2 (Homo sapiens, UniProt Q9HBY8)
T3 sequence (Q9HBY8 1-367): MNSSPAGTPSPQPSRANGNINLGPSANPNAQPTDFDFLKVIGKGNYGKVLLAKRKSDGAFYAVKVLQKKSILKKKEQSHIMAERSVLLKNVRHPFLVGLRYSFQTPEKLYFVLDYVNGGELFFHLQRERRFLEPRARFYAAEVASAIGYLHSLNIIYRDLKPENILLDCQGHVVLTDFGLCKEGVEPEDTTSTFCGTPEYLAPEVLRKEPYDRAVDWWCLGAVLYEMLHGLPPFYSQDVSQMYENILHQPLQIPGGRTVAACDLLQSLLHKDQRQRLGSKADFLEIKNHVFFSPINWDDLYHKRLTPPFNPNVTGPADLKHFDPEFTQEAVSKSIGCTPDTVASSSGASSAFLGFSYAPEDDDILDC
Method: as §1, §2, §3, §4, §5, §6

[4] = biological target: PRKCA (PKC alpha) (Homo sapiens, UniProt P17252)
Method: as §1, §2, §3, §4, §5, §6

[5] = biological target: RET (Homo sapiens, UniProt P07949)
Chain of RET (P07949 29-1114): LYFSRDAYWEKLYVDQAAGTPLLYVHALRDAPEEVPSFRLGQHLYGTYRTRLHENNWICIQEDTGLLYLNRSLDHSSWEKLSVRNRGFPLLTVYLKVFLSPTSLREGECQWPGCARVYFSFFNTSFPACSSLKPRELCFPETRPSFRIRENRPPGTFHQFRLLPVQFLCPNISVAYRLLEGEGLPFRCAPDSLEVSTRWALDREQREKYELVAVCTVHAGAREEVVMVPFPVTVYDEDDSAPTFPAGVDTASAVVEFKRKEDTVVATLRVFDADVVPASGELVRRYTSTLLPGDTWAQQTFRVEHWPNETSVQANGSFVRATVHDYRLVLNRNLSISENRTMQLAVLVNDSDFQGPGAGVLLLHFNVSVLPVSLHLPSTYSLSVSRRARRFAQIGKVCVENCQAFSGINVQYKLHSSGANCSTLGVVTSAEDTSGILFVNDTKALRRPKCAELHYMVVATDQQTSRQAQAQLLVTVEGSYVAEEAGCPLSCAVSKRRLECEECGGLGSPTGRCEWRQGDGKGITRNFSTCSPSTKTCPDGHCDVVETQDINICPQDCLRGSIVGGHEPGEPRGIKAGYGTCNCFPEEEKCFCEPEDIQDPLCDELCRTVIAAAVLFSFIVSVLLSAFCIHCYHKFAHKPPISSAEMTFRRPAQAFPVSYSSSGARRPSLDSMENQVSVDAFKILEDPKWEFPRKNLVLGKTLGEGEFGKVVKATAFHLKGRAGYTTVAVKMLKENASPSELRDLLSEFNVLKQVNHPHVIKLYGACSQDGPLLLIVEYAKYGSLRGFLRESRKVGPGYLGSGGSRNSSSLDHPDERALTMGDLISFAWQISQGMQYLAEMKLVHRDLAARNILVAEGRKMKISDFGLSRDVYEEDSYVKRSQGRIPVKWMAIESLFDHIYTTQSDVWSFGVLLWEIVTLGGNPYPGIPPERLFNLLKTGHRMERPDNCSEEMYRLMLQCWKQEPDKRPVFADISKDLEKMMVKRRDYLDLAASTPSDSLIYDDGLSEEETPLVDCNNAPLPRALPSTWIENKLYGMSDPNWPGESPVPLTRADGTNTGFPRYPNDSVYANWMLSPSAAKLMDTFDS
Method: as §1, §2, §3, §4, §5, §6

[6] = biological target: T4, PRKG1 (Homo sapiens, UniProt Q13976)
T4 sequence (Q13976 1-671): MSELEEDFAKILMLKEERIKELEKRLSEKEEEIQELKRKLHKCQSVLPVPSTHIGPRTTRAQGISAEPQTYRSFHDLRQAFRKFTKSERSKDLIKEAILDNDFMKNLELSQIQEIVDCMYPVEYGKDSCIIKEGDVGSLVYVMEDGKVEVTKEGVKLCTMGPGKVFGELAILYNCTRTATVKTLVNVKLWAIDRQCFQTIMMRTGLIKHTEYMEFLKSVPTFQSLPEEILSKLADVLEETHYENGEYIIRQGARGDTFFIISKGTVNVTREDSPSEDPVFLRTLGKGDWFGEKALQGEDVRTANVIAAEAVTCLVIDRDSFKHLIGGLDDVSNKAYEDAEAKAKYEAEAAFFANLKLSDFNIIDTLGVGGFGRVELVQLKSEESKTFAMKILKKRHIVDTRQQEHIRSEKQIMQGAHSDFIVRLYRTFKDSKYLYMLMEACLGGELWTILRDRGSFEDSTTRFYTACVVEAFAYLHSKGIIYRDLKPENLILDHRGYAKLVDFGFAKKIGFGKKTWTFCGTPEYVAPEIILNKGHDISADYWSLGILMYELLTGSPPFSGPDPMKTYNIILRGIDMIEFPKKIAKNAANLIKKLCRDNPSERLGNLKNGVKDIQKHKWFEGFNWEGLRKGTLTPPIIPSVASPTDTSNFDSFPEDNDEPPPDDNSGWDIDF

Molecule `C=CC(=O)Nc1ccc2c(c1)n(C1CCN(Cc3ccc(-c4nc5cc[nH]c(=O)c5cc4-c4ccccc4)cc3)CC1)c(=O)n2C` [24b] has an inhibition at 1 µM [1] of -4%, an inhibition at 1 µM [2] of -5% and an inhibition at 1 µM [3] of -1%. For the same molecule, the inhibition at 1 µM [4] was 23%, the inhibition at 1 µM [5] was 10% and the inhibition at 1 µM [6] was 6%.

With `C=CC(=O)Nc1cccc(C(=O)NC2CCN(Cc3ccc(-c4nc5cc[nH]c(=O)c5cc4-c4ccccc4)cc3)CC2)c1` [30b] the inhibition at 1 µM [1] was 5%, the inhibition at 1 µM [2] was -4% and the inhibition at 1 µM [3] was 3%. For the same molecule, the inhibition at 1 µM [4] was 27%, the inhibition at 1 µM [5] was 19% and the inhibition at 1 µM [6] was 10%.

In the case of `C=CC(=O)Nc1cc(NC(=O)NC2CCN(Cc3ccc(-c4nc5cc[nH]c(=O)c5cc4-c4ccccc4)cc3)CC2)ccc1Cl` [compound 27], the inhibition at 1 µM [1] is reported as -4%, the inhibition at 1 µM [2] is reported as -1% and the inhibition at 1 µM [3] is reported as 4%. The inhibition at 1 µM [4] was 16%, the inhibition at 1 µM [5] was 26% and the inhibition at 1 µM [6] was 11%.
